Experimental data as given in patent publication US4211764A, “Gastric secretion stimulation with 2-amino-5-(2-aminoethyl)-1,3,4-thiadiozole” (priority 1978, dated 1980).
Where a name gives a salt, the structure may show the parent alone. Read-outs that look alike come from different tables or passages of the source.

Assays:
gastric secretion [1] = details: cited from earlier work; for secretory effect per os: introduced per os, clinical conditions, inactivated by the liver and enzymes
gastric secretion [2] = type: in vivo, human; details: hypodermic or intramuscular
Excerpt: (§1) Special attention was paid to side effects and the reproductibility of the secretory response after repeated administrations of the drug.
The clinical investigation also helped to determine effective doses of the proposed preparation for submaximum and maximum tests and different forms of administration.

[3] = Physical properties of the dichlorohydrate; type: physicochemical
Excerpt: The dichlorohydrate of this compound is white-yellowish crystalline powder. […] Solution of this compound in 0.01 M of hydrochloric acid at a concentration of 10^-4 M has a characteristic absorption spectrum in the UV range with a maximum of 245±±1 nanometers.

H2 -receptors [4] = target: T1, H2 -receptors (Cavia porcellus, UniProt P47747); test: Heart rate of isolated auricles; details: isolated guinea pig auricles; read-out: pD2 value, H2 -receptors (heart rate) (converted)
T1 construct: from tissue; host or cells: isolated guinea pig auricles (atria)
Description: Changes in the heart rate were measured, dose-response curves were plotted, and pD2 values were calculated.

[5] = cited from earlier work
H1 -receptors = target: T2, H1 -receptors (Cavia porcellus, UniProt P31389); test: Contraction of isolated ileum; details: guinea pig ileum; read-out: pD2 value in relation to H1 -receptors (converted)
T2 construct: from tissue; host or cells: isolated guinea pig ileum

H2 -receptors [6] = target: H2 -receptors (Rattus norvegicus, UniProt P25102); details: uterus horn
Description: Contractions of an isolated horn of uterus of a rat due to the effect of acetylcholine in a concentration of 1.10^-6 M were recorded on a paper tape.

[7] = tested on: cardiovascular system (hypotension); details: relative to histamine; cited from earlier work
arterial pressure [8] = test: Arterial pressure in anesthetized cats; details: in vivo, iv, 0.1 mg/kg
Description: These experiments were performed on 11 cats weighing 2.5 to 4.0 kg and anesthetized with urethane-chlorazol mixture containing 60 mg/kg of chlorazol and 600 mg/kg of urethane. The arterial pressure was measured in the common carotid artery with the aid of a mercury pressure gauge.

dog's stomach = test: Gastric secretion in dogs, administration per os; type: in vivo; details: thidazine 100 mg per head (parenterally and per os), histamine 10 and 20 mg, histalog 50 and 100 mg
Description: (§2) Chronic experiments were performed on male dogs weighing 20 to 25 kg and having a gastric fistula; prior to experiments, the animals were starved for 18 hours.

H2 -ceptors = H2 -ceptors (Canis lupus familiaris, UniProt P17124); test: Gastric secretion in dogs with gastric fistula, intramuscular injection; details: animal (dog)
Description: as §2
The gastric juice was analyzed for titratable acidity and proteolytic activity. The hydrochloric acid output was calculated in milliequivalents (mEq) and that of pepsin in milligrams.

arterial pressure [9] = test: Arterial pressure in rabbits; details: intravenous, thidazine 0.1 mg/kg, equimolar doses of histamine and histalog
Description: In a series of experiments of 18 rabbits weighing 2.5 to 3.5 kg, each having the common carotid artery in a cutaneous flap, the preparations were injected intravenously.

[10] = tested on: gastric secretion of patients; test: Clinical comparison of thidazine with simple histamine test; type: in vivo, human; details: 20 patients; thidazine 1.5 mg/kg parenteral, histamine 0.01 mg/kg; >0.05
Excerpt: as §1

[11] = tested on: gastric secretion of patients with duodenal ulceration; test: Clinical comparison in patients with duodenal ulceration; type: in vivo, human
Excerpt: as §1
Histamine and Pentagastrin Upon Main Gastric Secretion
Characteristics of Patients With Duodenal Ulceration

total acidity = test: Clinical reproducibility of secretory response (total acidity); type: in vivo, human; details: 0.01 mg/kg hypodermic
Excerpt: as §1
Reproducibility of Secretory Response to Introduction
of Thidazine and Histamine with Reference to Total
Acidity Values (each group of patients includes 10 persons)
^(x) Percentage of difference is the relationship of the difference
between the total acidity values registered in the first and second tests
of a patient to the greater of these values.

H2 -receptors [12] = test: Prevention of thidazine-induced gastric secretion by an H2 -antagonist; type: in vivo, dog; details: dogs, methiamide 30 mg/kg before thidazine 2 mg/kg intramuscular
[13] = tested on: gastric secretion of patients of middle age group; test: Clinical test: effects of maximum doses upon gastric secretion of patients; type: in vivo, human; details: for Hourly HCl output: 15 observations
Excerpt: as §1

Chain of H2 -receptors (Rattus norvegicus, UniProt P25102) (P25102 whole entry): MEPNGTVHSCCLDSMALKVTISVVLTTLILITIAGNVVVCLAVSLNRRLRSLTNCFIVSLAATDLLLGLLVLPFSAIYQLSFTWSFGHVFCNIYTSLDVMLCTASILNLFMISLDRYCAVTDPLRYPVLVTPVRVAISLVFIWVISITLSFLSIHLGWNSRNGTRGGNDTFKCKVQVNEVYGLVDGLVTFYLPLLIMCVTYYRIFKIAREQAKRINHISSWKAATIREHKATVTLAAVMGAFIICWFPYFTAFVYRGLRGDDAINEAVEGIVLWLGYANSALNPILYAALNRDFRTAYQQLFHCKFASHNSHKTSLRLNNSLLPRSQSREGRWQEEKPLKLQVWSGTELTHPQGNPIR
Chain of H2 -ceptors (P17124 whole entry): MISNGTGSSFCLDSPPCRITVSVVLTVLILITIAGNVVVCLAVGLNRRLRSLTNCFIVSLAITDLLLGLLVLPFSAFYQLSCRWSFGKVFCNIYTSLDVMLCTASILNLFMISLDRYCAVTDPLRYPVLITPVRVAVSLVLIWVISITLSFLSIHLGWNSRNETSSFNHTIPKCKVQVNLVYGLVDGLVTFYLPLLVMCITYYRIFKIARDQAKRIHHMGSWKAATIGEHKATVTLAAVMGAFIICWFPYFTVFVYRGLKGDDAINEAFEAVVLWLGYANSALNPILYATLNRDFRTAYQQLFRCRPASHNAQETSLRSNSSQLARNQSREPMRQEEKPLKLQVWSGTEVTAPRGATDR
T1 sequence (P47747 whole entry): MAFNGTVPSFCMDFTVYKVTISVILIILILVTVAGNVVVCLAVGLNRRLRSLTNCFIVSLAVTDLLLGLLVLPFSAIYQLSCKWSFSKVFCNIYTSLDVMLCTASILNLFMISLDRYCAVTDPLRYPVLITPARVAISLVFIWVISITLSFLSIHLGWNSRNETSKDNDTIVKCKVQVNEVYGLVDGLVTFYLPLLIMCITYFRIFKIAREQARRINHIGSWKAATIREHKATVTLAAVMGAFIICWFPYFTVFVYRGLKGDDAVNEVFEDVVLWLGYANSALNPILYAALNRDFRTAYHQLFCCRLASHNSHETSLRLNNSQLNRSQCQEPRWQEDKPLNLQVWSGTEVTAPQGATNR
T2 sequence (P31389 whole entry): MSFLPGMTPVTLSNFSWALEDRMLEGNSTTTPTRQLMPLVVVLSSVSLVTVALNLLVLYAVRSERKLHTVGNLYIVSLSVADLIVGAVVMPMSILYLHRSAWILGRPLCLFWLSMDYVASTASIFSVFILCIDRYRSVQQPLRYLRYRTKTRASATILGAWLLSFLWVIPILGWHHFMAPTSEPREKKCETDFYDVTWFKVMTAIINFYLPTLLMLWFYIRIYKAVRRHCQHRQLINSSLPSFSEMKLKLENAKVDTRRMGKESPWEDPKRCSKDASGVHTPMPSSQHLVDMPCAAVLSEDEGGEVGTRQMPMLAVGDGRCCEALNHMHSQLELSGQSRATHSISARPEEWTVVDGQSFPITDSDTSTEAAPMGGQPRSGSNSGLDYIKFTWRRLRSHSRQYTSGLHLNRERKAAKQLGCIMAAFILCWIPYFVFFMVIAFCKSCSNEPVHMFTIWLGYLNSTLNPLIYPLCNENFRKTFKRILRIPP

Cc1[nH]cnc1CCN [5-methylhistamine]
secretory effect per os (gastric secretion [1]): no secretory effect is produced

Cl.Cl.NCCc1c[nH]cn1 [Histamine dichloride, reference compound]
dose for maximum secretion test (gastric secretion [2]): 0.025 mg/kg
dose for submaximum secretion test (gastric secretion [2]): 0.008 mg/kg

NCCc1nnc(N)s1 [dihydrochloride of 2-amino-5-(2-aminoethyl)-1,3,4-thiadiazole]
stability of aqueous solution [3]: stable over prolonged periods of time
hygroscopicity ([3]; powder): poor hygroscopicity
reaction (acidity) of solution ([3]; solutions before neutralization to pH 6 to 7): strongly acidic reaction
solubility in water ([3]; water): readily soluble in water

NCCc1cc[nH]n1 [histalog, 3-(5)-(2-aminoethyl)pyrazole, reference compound]
EC50 (H2 -receptors [4]): 15.8 µM
side effects ([5]; in vivo): side effects are observed far less frequently than in the case of histamine
dose for maximum secretion test (gastric secretion [2]): 1.7 mg/kg
dose for submaximum secretion test (gastric secretion [2]): 0.9 mg/kg
EC50 (H1 -receptors): 58.9 µM
Emax (H2 -receptors [6]): 16%
hypotensive effect, times as low as that of histamine [7]: 700 times
reduction of arterial pressure (arterial pressure [8]): 30 mm of mercury
gastric secretion after administration per os (dog's stomach): no gastric secretion
production of maximum level of hydrochloric acid secretion in the stomach (H2 -ceptors): can produce a maximum level of hydrochloric acid secretion
secretory response of the stomach (gastric secretion [1]; humans, parenteral, 1 to 5 mg/kg): maximum secretory response of the stomach
secretory effect per os (gastric secretion [1]): no secretory effect is produced
capability of stimulating gastric secretion, times less effective than histamine (gastric secretion [1]; relative to histamine): 70 times

NCCc1c[nH]cn1 [histamine, reference compound]
reduction of arterial pressure (arterial pressure [9]): 40 mm of mercury
Free Acidity [10]: 81.7+21 units
HCl Output [10]: 12+0.4 milliequivalents per hour
Peak HCl Output [10]: 8.8+0.2 milliequivalents
Total Acidity [10]: 92.0+23 units
side effects ([5]; patients): reddening of the skin, nausea, vomiting, headache, dizziness, bronchospasm, edema of the rima vocalis, hypotension, and shocks
Emax (H2 -receptors [6]): 100%
Chymosin Output ([11]; 1st hour (basal secretion)): 16.0 ± 0.008 units per hour
Pepsin Output ([11]; 1st hour (basal secretion)): 3.7 ± 1.2 units per hour
Secretion, milliequivalents per hour ([11]; 1st hour (basal secretion)): 7.0 ± 1.2 Milliequivalents per hour
Chymosin Output ([11]; 2nd hour): 16.4 ± 0.04 units per hour
Pepsin Output ([11]; 2nd hour): 4.8 ± 3.0 units per hour
Secretion, milliequivalents per hour ([11]; 2nd hour): 19.4 ± 1.6 Milliequivalents per hour
% of difference (fluctuations) of total acidity, first and second tests (total acidity): 0-53%
Average difference of total acidity (total acidity): 33%
reduction of arterial pressure (arterial pressure [8]): 100 mm of mercury
gastric secretion after administration per os (dog's stomach): no gastric secretion
production of maximum level of hydrochloric acid secretion in the stomach (H2 -ceptors): can produce a maximum level of hydrochloric acid secretion
secretory effect per os (gastric secretion [1]): no secretory effect is produced

CNC(=S)NCCSCc1nc[nH]c1C [methiamide]
prevention of thidazine secretory effect (H2 -receptors [12]): completely prevented

CSCC[C@H](NC(=O)[C@H](Cc1c[nH]c2ccccc12)NC(=O)CCNC(=O)OC(C)(C)C)C(=O)N[C@@H](CC(=O)O)C(=O)N[C@@H](Cc1ccccc1)C(N)=O [pentagastrin, reference compound]
side effects ([5]; patients): can produce allergic and anaphylactic reactions as a result of repeated administrations
Chymosin Output ([11]; 1st hour (basal secretion)): 157.3 ± 5.9 units per hour
Pepsin Output ([11]; 1st hour (basal secretion)): 3.3 ± 0.8 units per hour
Secretion, milliequivalents per hour ([11]; 1st hour (basal secretion)): 7.4 ± 0.8 Milliequivalents per hour
Pepsin Output ([11]; 2nd hour): 19.3 ± 3.8 units per hour
Secretion, milliequivalents per hour ([11]; 2nd hour): 24.8 ± 1.5 Milliequivalents per hour
HCl Concentration ([13]; 1st hour (basal secretion)): 35.3 milliequivalents per liter
HCl Concentration ([13]; 2nd hour (response to drug)): 94.0 milliequivalents per liter
Gastric Juice, Δ% ([13]; 2nd versus 1st hour): +63.7%
Hourly HCl output, Δ% ([13]; 2nd versus 1st hour): +345.9%
Hourly HCl output ([13]; 1st hour (basal secretion)): 3.7 milliequivalents per hour
Hourly HCl output ([13]; 2nd hour (response to drug)): 16.5 milliequivalents per hour
Gastric Juice ([13]; pentagastrin 6 mg/kg, 1st hour (basal secretion)): 106.3 ml per hour
Gastric Juice ([13]; pentagastrin 6 mg/kg, 2nd hour (response to drug)): 174.0 ml per hour
HCl Concentration, Δ% ([13]; pentagastrin 6 mg/kg, 2nd versus 1st hour): +166.3%
secretory effect per os (gastric secretion [1]): no secretory effect is produced
duration of effect of a single dose (gastric secretion [1]; single dose): does not last long
level of secretion (gastric secretion [1]; sufficient dose): can produce a maximum level of secretion
